PMC8596838, “Xylose‐Configured Cyclophellitols as Selective Inhibitors for Glucocerebrosidase” (Chembiochem, 2021)

Key:
GBA3 = target: T1, GBA3 (Homo sapiens, UniProt Q9H227); assay: Inhibition in intact HEK293T cells (24 h), read out by cABPP with ABP 10, GBA3; assay type: cell-based; conditions: for IC50: 24 h treatment, cABPP quantification, n=3; for GBA3/GBA ratio, intact cells: IC50 ratio, 24 h
T1 construct: expressed in transfected cells; host or cells: HEK293T (GBA/GBA2 KO background for the fluorogenic assay; endogenous-GBA background with GBA2 and GBA3 overexpressed for ABPP and intact-cell assays)
T1 sequence (Q9H227 1-469): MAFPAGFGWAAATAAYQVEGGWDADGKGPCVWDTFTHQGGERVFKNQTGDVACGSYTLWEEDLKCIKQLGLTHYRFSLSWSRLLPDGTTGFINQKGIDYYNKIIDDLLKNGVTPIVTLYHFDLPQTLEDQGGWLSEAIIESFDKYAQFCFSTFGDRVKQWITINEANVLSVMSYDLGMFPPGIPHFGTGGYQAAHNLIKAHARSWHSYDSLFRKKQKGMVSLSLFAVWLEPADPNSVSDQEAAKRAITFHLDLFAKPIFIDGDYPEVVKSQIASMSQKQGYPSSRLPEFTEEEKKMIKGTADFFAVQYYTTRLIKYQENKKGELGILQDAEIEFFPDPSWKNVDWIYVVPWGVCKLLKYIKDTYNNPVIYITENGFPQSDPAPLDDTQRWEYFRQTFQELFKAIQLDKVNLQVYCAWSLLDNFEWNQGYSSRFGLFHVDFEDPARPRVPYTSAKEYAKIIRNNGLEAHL
From the text: (§1) We next examined the activity of 1 and 2 towards the three human β‐D‐glucosidase in intact HEK293T cells. […] It is noted that the GBA‐selectivity of both compounds is much improved in intact cells than in the in vitro system (Figure 2 and Table 1). This is especially true for compound 1, where an impressive 4‐logs of selectivity window is observed.
(§2) Figure 5 Inhibitory effect of β‐D‐xylo‐configured cyclophellitol 1 and cyclophellitol aziridine 2 on β‐glucosidases in intact HEK293T cells expressing GBA, GBA2 and GBA3. (A) Representative gel images of cABPP where cells were treated for 24 h with indicated inhibitor. Lysates were then prepared and labeled with fluorescent ABP 10. Fluorescently labeled proteins were visualized after SDS‐PAGE (1 set from n=3 replicates). (B) IC50 curves determined by cABPP labeling results. (C) Apparent IC50 values towards β‐glucosidases in intact HEK293T cells producing GBA, GBA2 and GBA3 were determined by the fluorescence quantification based on cABPP SDS‐PAGE results.
(§3) ABP labeling procedure: Glycosidases were labeled with excess fluorescent ABPs at optimum conditions. ABP labeling was performed at 37 °C for 30 min for all materials (if not otherwise stated), in a total sample volume of 20–40 μL and 0.5–1 % DMSO concentration. GBA was labeled with 200 nM ABP 9 (pH 5.2, 0.1 % (v/v) Triton‐100, 0.2 % (w/v) sodium taurocholate), or labeled together with GBA2 using 200 nM β‐D‐glucose‐configured aziridine ABP 10 at pH 5.8, or labeling together with GBA2 and GBA3 using 200 nM β‐D‐glucose‐configured aziridine ABP 10 at pH 6.0. After ABP incubation, proteins were denatured by boiling the samples with 5× Laemmli buffer (50 % (v/v) 1 M Tris‐HCl, pH 6.8, 50 % (v/v) 100 % glycerol, 10 % (w/v) DTT, 10 % (w/v) SDS, 0.01 % (w/v) bromophenol blue) for 5 min at 98 °C, and separated by electrophoresis on 10 % (w/v) SDS‐PAGE gels running continuously at 90 V. Wet slab‐gels were scanned on fluorescence using the Typhoon FLA 9500 (GE Healthcare) at λEX 473 nm and λEM≥510 nm for green fluorescent ABP 8; and at λEX 635 nm and λEM≥665 nm for ABP 6, 9 and 10. ABP‐emitted fluorescence was quantified using ImageQuant software (GE Healthcare, Chicago, IL, USA) and curve‐fitted using Prism 8.0 (GraphPad Software). After fluorescence scanning, SDS‐PAGE gels were stained for total protein with Coomassie G250 and scanned on a ChemiDoc MP imager (Bio‐Rad, Hercules, CA, USA).[25]
(§4) Assessment of inhibitor activity in cultured cells: Confluent HEK293T stably expressing human GBA and GBA2 GBA3 overexpressing were cultured in 24‐well plates in triplicates with(out) inhibitors for 24 h at 37 °C with 7 % CO2. […]

GBA2 = target: T2, GBA2 (Homo sapiens, UniProt Q9HCG7); assay: Inhibition in intact HEK293T cells (24 h), read out by cABPP with ABP 10, GBA2; assay type: cell-based; conditions: for IC50: 24 h treatment, cABPP quantification, n=3; for GBA2/GBA ratio, intact cells: IC50 ratio, 24 h
T2 construct: expressed in transfected cells; host or cells: HEK293T (GBA/GBA2 KO background for the fluorogenic assay; endogenous-GBA background with GBA2 and GBA3 overexpressed for ABPP and intact-cell assays)
T2 sequence (Q9HCG7 1-927): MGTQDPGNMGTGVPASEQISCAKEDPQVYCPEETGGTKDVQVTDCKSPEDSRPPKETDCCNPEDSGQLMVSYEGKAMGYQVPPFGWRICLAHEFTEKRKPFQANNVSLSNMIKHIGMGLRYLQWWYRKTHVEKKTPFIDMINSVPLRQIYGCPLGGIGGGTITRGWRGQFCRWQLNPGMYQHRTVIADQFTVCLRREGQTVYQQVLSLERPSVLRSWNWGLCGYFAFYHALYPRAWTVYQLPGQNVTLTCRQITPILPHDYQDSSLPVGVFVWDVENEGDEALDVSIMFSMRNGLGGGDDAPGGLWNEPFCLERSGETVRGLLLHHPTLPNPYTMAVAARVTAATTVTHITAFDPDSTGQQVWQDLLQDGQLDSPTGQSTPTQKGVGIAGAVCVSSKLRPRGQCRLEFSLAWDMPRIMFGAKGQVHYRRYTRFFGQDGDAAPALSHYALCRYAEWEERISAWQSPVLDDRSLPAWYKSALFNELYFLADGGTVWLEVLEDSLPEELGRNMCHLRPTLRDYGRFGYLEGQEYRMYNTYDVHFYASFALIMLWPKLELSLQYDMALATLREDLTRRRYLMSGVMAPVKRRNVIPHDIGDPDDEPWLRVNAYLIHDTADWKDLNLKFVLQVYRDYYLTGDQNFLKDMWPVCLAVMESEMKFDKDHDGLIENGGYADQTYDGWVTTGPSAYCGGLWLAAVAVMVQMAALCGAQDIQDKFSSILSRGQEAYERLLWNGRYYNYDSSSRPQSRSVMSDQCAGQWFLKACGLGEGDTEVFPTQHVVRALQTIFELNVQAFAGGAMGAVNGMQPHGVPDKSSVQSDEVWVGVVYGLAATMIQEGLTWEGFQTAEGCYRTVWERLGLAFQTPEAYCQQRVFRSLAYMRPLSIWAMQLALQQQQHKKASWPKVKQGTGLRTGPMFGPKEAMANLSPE
From the text: as §1, §2, §3, §4

Compound	IC50 (GBA3) [µM]	GBA3/GBA ratio, intact cells (GBA3)	IC50 (GBA2) [µM]	GBA2/GBA ratio, intact cells (GBA2)
O[C@@H]1[C@@H](O)[C@H](O)C[C@H]2O[C@@H]12 [compound 1, xylo‐cyclophellitol]	> 100	> 10000	> 100	> 10000
O[C@@H]1[C@@H](O)[C@H](O)C[C@H]2N[C@@H]12 [compound 2, β‐D‐xylo‐Cyclophellitol aziridine]	48.9 ± 12.7	1159	10.4 ± 1.53	247
